Assay results published in patent US20110189291A1, “DENDRIMER HYDROGELS” (priority 2009, published 2011).
Values after ≈ are worked out from the molar mass of the structure shown. Values joined by “and” are separate entries in the source; they are usually repeats but may differ in a detail not shown here. Identical values can stand only once. Counter-ions that a name gives are not always drawn. Like-named read-outs stand apart in the source and are kept apart here.

Experiments:
[1] = physchem; conditions: for solubility: thermodynamic from solid, saturated concentration (solubility); for solubility / saturated concentration (solubility): room temperature
Procedure: Following overnight equilibration at room temperature, the solution was vortexed again and then centrifuged at 10,000 rpm for 5 min to remove undissolved drug. The sample solution was diluted by a factor of 100 in PBS, and absorbance value (Y) at 248 nm was recorded on a GENESYS™ 6 UV-Visual spectrophotometer. Thus, drug concentration (C in μg/mL) was determined using the following regression equation: C=(Y−0.005)/0.063. […] Measurements were done in duplicate.
Following overnight equilibration at room temperature, the solution was vortexed again and then centrifuged to remove undissolved drug. The supernatant was collected, diluted by a factor of 100 in PBS, and its absorbance value (Y) at 248 nm was recorded on a GENESYS™ 6 UV-Visual spectrophotometer. Thus, drug concentration [C] (μg/mL) was determined using the following regression equation: C=(Y−0.005)/0.063 [2]. […] Measurements were done in duplicate.

[2] = In vitro drug release by dialysis in pH 7.4 PBS at 37° C.; assay type: physicochemical; conditions: for time for complete release (in words): from eye drop formulations
Procedure: The control eye drop formulation was PBS containing 0.1% brimondien and 0.5% timiolol maleate. […] The dissolution medium was maintained at 37±2° C. and constantly agitated in a shaker incubator. 4. Dissolution medium was completely replaced at all time intervals with 1.5 ml of fresh dissolution medium maintained at 37±2° C. 5. The amount of drug released in the dissolution medium at each time interval was analyzed by LC-MS.

[3] = tested on: Human corneal epithelial cells (HCET); assay type: cell-based; conditions: 1 h
Procedure: The uptake of brimonidine and timolol maleate by HCET cells after entrapment of the drugs in a hydrogel was studied. As a control, eye drop formulation of both the drugs in phosphate buffer saline was used. • 1. Human corneal epithelial cells (HCET, passage #40) were seeded in a 48 well plate (BD, Falcon®, Multiwell™ tissue culture plates) at a seeding density of 5000 cells/well. • 2. The cells were allowed to adhere to the surface of the well overnight. • 3. […] The cells were washed twice with 200 μl cold PBS pH 7.4 and twice with 200 μl cold acidic PBS pH 5.0. All the washes were collected. Finally, 200 μl of 1% w/v Triton X 100 solution was transferred to each well and allowed to stand for 30 minutes. • 6. The cells were scraped (dislodged) using a pipette tip and suspension of cells in 1% Triton X 100 solution was collected. • 7. Samples were processed as follows: 100 μl of sample collected as described above was diluted to 500 μl using acetonitrile. The samples were vortexed for 10 minutes and centrifuged at 10,000 rpm for 5 minutes, and then analyzed using LC-MS as described in Table 4. Dorzolamide was used as an internal standard

[4] = Ex vivo transcorneal transport
Procedure: 1. Corneas were isolated from freshly excised bovine eyes and mounted in Using chambers. 2. […] Note: Both drugs were present together in this hydrogel/solution cocktail. 3. […] 4. 200 μl of sample was collected from the receiver side with fresh assay buffer replacement at the end of 1, 2, 3, 4 and 6 h. 5. […] 6. Samples were stored at −80° C. prior to analysis. 7. Cumulative percent transport was normalized to the amount of drug present at zero time point.

[5] = Ex vivo bovine eye tissue uptake after topical dosing; assay type: in vitro ADME
Procedure: 1. […] Eyes were kept in the muffin plate and partially dipped into PBS pH 7.4. 3. 50 μl of hydrogel formulation or solution was instilled gently as an eye drop onto the corneal surface. 4. After every 15 minutes, 50 μl of fresh PBS pH 7.4 was instilled as an eye drop to prevent corneal drying. 5. At the end of 1 h, eyes were dissected and the following tissues were collected: corneal epithelium, stroma, endothelium and aqueous humor. Tissues were stored at −80° C. before sample processing and analysis. 1. Tissues weights were recorded and 0.49 ml of 2% NaOH solution was added to these tissues along with 10 μl of IS of 12.5 μg/ml. 2. Samples were homogenized, sonicated, and extracted with organic solvent. Final reconstitution was done in 0.5 ml of acetonitrile-water mixture (75:25).

| duration of sustained release ([2]; from DH formulation) [h] | time for complete release (in words) [2] | Mean % drug content in first wash with acidic buffer [3] [%] | Mean % drug content in second wash with acidic buffer [3] [%] | Mean % drug content in supernatant after completion of study [3] [%] | Mean % drug content in first wash with acidic buffer ([3]; pH 7.4) [%] | Mean % drug content in second wash with acidic buffer ([3]; pH 7.4) [%] | Mean % drug content in supernatant after completion of study ([3]; pH 7.4) [%] | SMILES | further results |
| --- | --- | --- | --- | --- | --- | --- | --- | --- | --- |
| ~72 | within one hour and a half | 0.00 | 0.00 | 0.00 | 93.13 | 2.92 | 0.06 | Brc1c(NC2=NCCN2)ccc2nccnc12 [brimonidine] | solubility ([1]; 8.1% (w/v) G3.0-PEG-dA in PBS, aqueous with cosolvent or surfactant or cyclodextrin, in the presence of G3.0-PEG-dA (8.1% w/v in PBS; DH formulation)): 696 µg/mL; solubility increase ([1]; G3.0-PEG-dA / DH formulation versus plain PBS): 77.5% and 77.6%; solubility ([1]; PBS, aqueous buffer, plain PBS): 392 µg/mL (≈ 1340 µM); saturated concentration (solubility) ([1]; in the presence of G3.0-PEG-dA (8.1% w/v in PBS; DH formulation)): 696 µg/mL; saturated concentration (solubility) ([1]; plain PBS): 392 µg/mL; duration of sustained release ([2]; from hydrogel Formulation C (0.1% brimonidine, 0.5% timolol maleate), 37° C.): 72 h; Mean % drug content in cell lysate after completion of study (uptake) [3]: 76.17%; uptake with DH formulation higher than with eye drop formulation [3]: 19 fold; corneal transport, hydrogel formulation versus solution (in words) ([4]; at the end of 6 h): slightly higher transport; cumulative percentage transport across the cornea ([4]; from the DH formulation, at 6 h): 1.06±0.18%; level in aqueous humor, hydrogel versus eye drop formulation (in words) ([5]; 1 h after topical instillation): significant difference in drug level was not observed |
| ~56 | within one hour and a half | 0.0 | 14.9 | 0.1 | 0.0 | 34.7 | 0.2 | CC(C)(C)NC[C@H](O)COc1nsnc1N1CCOCC1 [timolol maleate] | corneal transport, hydrogel formulation versus solution (in words) [4]: higher from hydrogel; cumulative percentage transport across the cornea ([4]; bovine, 6 h, pH 7): 13.54±1.83%; level from hydrogel formulation more than from eye drop solution ([5]; bovine, 1 h, 0.5 %, pH 7.4): 40% |
